For assay [1], the system named is Primary rat oligodendrocyte progenitor cells. Kind of assay: Oligodendrocyte toxicity assay, progenitor cells (OLP), SIN-1, LDH release. Type of assay: cell-based. The note with it: compound 10 nm, 1 hour pretreatment; Sin-1 10 mM; LDH after 24 hours; oligodendrocyte progenitors. In general terms: LDH leaks from cells whose membrane has failed.
Protocol: (§1) Primary rat oligodendrocyte progenitor cells were obtained from the cerebra of 2-3 day old postnatal rats (Sprague Dawley). The meninges were removed and tissue was mechanically dissociated. Cells were plated on T75 flasks and fed with DMEM+10% FBS.
(§2) Enriched OLPs were collected by mechanical separation from the astrocytic monolayer and were expanded in serum free media (SFM) supplemented with the mitogens, PDGF-AA (10 ng/ml) and FGF-2 (10 ng/ml).
(§3) Cells were plated in 96-well plates, 10,000 per well. Medium was changed to fresh medium and cells were pretreated with compounds for 1 hour. Toxins were added to give the following final concentrations: • Sin-1 10 mM • Pyrogallol 500 μM • C2 ceramide 100 μM • Camptothecin 10 μM
(§4) After 24 hours, medium was removed and assayed for LDH activity using the Promega cytotox 96 kit (catalog# G1780). Results were calculated as percent protection against toxin-induced toxicity.
Assay [2] concerns mature oligodendrocytes. As to the kind of experiment: Oligodendrocyte toxicity assay, mature oligodendrocytes (OL), SIN-1, LDH release. Type of assay: cell-based, rat. As to conditions: compound 10 nm, 1 hour pretreatment, Sin-1 10 mM, LDH after 24 hours.
Protocol: as §1, §2
To generate mature oligodendrocytes, progenitor cells were switched to SFM supplemented with IGF-1 (10 ng/ml) 24 hours after plating and cells were grown under these conditions for 7 days prior to experimental assays.
as §3, §4
In assay [3] the test system is SK-N-SH cells. The note with it: U-0126 given with the tested compounds.
Protocol: Cells from a human neuroblastoma cell line, SK-N-SH cells, were plated at 50,000 cells/well in Costar Biocoat 96-well poly-D-lysine coated plates in EMEM (Minimum Essential Medium Eagle with Earle's salts) containing penicillin/streptomycin, L-glutamine, sodium pyruvate, non-essential amino acids and sodium bicarbonate. Cells were grown overnight in a 37° C. incubator under 5% CO2. The next day, the medium was removed and replaced with fresh medium. Cells were pretreated with Serms for 1 hour, and SIN-1 (3-morpholinosydnonimine, which produces peroxynitrite) was added to give a final concentration of 2 or 10 mM. After 24 hours, the medium was removed and assayed for LDH activity using the Promega cytotox 96 kit (catalog# G1780). Results were calculated as percent protection against SIN-1 toxicity.

In the case of `COc1ccc(-c2sc3cc(O)ccc3c2Oc2ccc(OCCN3CCCCC3)cc2)cc1` [Arzoxifen], the “% Protection (SIN-1*) OLP 10 nm” value in assay [1] worked out at 1.485%. Besides, the “% Protection (SIN-1*) OL 10 nm” value in assay [2] was determined as 8.237%. Consider `N#CC(=C(/N)Sc1ccccc1N)/C(C#N)=C(\N)Sc1ccccc1N` [U-0126], for which the “effect of MEK inhibitor on the neuroprotection by the compounds” value in assay [3] was “inhibition of the neuroprotection”.

(Values after patent publication US20080033005A1, “METHODS FOR THE TREATMENT OF MULTIPLE SCLEROSIS” (AVENTIS PHARMACEUTICALS INC., priority 2004, published 2008).)
